Results: ChEMBL document CHEMBL4219045 (Bioorg Med Chem, 2018)
Positions of bridges follow the written chain, without caps; N, C: chain ends. Residues, ends and D or L forms follow the SMILES beside them.

Tests used:
[1] = target: Sodium channel protein type 5 subunit alpha (Homo sapiens, UniProt Q14524); assay: Inhibition of Nav1.5 (unknown origin) expressed in xenopus oocytes at -80 mV holding potential by two-electrode voltage-clamp method; type: cell-based
[2] = target: Sodium channel protein type 2 subunit alpha (Homo sapiens, UniProt Q99250); assay: Inhibition of Nav1.2 (unknown origin) expressed in xenopus oocytes at -80 mV holding potential by two-electrode voltage-clamp method; type: cell-based
[3] = target: Sodium channel protein type 8 subunit alpha (Homo sapiens, UniProt Q9UQD0); assay: Inhibition of Nav1.6 (unknown origin)
[4] = target: Acetylcholine receptor subunit epsilon (Homo sapiens, UniProt Q04844); assay: Inhibition of nAChR epsilon (unknown origin)
[5] = Toxicity in mouse; type: organism-based; details: in vivo
[6] = target: T1, Transient receptor potential cation channel subfamily V member 6 (Homo sapiens, UniProt Q9H1D0); assay: Inhibition of TRPV6 (unknown origin) expressed in HEK293 cells by whole cell patch clamp assay; type: cell-based
T1 sequence (Q9H1D0 whole entry): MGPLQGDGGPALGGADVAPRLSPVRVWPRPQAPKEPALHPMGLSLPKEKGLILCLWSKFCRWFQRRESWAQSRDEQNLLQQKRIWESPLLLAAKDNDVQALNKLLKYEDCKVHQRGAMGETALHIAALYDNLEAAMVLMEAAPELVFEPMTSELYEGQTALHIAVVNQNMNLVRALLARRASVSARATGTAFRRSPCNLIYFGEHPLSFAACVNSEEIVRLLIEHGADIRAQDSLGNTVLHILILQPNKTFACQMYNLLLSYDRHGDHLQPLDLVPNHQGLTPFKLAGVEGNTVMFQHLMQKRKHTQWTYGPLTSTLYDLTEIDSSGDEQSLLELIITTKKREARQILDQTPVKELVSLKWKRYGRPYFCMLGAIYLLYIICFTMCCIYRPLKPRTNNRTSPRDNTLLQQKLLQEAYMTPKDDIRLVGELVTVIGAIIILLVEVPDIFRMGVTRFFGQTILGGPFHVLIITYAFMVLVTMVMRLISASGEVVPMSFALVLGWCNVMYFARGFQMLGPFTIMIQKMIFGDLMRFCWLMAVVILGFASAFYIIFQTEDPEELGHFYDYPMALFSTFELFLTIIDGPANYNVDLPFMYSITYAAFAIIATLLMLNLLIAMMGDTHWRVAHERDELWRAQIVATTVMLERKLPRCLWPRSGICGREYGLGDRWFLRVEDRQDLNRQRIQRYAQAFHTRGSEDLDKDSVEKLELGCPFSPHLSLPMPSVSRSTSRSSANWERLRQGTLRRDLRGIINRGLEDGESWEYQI

[7] = target: DPP4 (dipeptidyl peptidase 4) (Homo sapiens, UniProt P27487); assay: Stability in plasma (unknown origin) assessed as DPP4-mediated drug degradation by measuring half life; type: ADME

Acetylcholine receptor subunit epsilon, sequence (Q04844 whole entry): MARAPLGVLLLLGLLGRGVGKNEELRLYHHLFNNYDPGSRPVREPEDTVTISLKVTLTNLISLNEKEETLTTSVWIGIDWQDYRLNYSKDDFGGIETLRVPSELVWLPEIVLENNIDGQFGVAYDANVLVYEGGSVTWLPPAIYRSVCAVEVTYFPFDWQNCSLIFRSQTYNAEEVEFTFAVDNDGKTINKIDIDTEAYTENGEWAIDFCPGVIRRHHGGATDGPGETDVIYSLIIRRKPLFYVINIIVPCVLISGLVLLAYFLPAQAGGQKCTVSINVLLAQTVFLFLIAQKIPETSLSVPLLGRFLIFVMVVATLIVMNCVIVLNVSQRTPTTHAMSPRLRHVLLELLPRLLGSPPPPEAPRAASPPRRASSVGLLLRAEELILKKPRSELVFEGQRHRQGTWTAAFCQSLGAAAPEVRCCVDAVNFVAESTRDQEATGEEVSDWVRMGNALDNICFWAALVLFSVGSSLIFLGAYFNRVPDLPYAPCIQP
Sodium channel protein type 2 subunit alpha, sequence (Q99250 whole entry): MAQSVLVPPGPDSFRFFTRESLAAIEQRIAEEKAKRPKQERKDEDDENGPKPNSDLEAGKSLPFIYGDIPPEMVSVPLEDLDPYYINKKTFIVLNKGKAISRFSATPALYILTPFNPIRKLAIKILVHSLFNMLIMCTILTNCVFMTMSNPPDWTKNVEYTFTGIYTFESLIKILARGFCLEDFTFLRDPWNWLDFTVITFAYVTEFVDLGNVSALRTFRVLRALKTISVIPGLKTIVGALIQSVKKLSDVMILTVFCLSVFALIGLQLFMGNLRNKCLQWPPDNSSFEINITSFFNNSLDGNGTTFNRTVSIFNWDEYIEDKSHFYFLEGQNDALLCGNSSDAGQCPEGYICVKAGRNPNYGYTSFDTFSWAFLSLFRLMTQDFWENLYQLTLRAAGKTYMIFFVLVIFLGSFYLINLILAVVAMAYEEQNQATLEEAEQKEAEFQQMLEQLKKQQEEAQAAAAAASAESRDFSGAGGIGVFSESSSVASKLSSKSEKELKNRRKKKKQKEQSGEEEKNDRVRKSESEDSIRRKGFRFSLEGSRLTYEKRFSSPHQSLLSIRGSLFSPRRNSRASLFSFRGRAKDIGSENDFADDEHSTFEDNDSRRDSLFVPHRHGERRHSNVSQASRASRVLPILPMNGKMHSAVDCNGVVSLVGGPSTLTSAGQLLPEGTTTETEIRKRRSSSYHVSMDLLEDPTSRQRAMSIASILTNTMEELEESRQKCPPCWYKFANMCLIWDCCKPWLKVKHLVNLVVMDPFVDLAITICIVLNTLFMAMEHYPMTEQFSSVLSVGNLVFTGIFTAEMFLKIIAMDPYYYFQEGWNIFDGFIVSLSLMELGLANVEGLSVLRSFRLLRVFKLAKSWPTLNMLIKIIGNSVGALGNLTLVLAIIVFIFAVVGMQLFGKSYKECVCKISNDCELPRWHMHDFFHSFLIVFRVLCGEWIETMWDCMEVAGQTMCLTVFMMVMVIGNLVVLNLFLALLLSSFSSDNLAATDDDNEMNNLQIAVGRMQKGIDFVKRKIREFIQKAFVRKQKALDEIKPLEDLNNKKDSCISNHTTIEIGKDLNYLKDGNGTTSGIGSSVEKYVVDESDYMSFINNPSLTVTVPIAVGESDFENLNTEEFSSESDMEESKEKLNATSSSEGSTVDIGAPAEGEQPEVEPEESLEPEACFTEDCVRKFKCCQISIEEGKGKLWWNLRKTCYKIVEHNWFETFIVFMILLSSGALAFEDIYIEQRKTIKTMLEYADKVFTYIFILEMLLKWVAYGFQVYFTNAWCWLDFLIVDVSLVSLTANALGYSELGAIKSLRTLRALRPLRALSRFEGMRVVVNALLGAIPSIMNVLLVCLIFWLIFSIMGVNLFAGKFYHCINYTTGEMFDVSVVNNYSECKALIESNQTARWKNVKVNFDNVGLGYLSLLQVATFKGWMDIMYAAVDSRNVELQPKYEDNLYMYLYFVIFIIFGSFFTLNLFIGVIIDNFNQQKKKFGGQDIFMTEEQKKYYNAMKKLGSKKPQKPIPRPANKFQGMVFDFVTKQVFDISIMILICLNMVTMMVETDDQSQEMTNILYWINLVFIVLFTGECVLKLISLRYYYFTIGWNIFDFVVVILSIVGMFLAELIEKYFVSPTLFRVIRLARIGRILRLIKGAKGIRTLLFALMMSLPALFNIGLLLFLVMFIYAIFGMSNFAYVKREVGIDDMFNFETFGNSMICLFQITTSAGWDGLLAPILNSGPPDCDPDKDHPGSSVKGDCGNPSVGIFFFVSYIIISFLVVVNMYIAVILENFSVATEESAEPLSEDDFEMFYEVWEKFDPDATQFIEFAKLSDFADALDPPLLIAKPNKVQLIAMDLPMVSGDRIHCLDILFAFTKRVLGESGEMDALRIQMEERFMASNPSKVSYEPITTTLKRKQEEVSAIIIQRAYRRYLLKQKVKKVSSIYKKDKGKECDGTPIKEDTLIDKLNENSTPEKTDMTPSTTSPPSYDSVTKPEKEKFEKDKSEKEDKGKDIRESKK
Sodium channel protein type 8 subunit alpha, sequence (Q9UQD0 whole entry): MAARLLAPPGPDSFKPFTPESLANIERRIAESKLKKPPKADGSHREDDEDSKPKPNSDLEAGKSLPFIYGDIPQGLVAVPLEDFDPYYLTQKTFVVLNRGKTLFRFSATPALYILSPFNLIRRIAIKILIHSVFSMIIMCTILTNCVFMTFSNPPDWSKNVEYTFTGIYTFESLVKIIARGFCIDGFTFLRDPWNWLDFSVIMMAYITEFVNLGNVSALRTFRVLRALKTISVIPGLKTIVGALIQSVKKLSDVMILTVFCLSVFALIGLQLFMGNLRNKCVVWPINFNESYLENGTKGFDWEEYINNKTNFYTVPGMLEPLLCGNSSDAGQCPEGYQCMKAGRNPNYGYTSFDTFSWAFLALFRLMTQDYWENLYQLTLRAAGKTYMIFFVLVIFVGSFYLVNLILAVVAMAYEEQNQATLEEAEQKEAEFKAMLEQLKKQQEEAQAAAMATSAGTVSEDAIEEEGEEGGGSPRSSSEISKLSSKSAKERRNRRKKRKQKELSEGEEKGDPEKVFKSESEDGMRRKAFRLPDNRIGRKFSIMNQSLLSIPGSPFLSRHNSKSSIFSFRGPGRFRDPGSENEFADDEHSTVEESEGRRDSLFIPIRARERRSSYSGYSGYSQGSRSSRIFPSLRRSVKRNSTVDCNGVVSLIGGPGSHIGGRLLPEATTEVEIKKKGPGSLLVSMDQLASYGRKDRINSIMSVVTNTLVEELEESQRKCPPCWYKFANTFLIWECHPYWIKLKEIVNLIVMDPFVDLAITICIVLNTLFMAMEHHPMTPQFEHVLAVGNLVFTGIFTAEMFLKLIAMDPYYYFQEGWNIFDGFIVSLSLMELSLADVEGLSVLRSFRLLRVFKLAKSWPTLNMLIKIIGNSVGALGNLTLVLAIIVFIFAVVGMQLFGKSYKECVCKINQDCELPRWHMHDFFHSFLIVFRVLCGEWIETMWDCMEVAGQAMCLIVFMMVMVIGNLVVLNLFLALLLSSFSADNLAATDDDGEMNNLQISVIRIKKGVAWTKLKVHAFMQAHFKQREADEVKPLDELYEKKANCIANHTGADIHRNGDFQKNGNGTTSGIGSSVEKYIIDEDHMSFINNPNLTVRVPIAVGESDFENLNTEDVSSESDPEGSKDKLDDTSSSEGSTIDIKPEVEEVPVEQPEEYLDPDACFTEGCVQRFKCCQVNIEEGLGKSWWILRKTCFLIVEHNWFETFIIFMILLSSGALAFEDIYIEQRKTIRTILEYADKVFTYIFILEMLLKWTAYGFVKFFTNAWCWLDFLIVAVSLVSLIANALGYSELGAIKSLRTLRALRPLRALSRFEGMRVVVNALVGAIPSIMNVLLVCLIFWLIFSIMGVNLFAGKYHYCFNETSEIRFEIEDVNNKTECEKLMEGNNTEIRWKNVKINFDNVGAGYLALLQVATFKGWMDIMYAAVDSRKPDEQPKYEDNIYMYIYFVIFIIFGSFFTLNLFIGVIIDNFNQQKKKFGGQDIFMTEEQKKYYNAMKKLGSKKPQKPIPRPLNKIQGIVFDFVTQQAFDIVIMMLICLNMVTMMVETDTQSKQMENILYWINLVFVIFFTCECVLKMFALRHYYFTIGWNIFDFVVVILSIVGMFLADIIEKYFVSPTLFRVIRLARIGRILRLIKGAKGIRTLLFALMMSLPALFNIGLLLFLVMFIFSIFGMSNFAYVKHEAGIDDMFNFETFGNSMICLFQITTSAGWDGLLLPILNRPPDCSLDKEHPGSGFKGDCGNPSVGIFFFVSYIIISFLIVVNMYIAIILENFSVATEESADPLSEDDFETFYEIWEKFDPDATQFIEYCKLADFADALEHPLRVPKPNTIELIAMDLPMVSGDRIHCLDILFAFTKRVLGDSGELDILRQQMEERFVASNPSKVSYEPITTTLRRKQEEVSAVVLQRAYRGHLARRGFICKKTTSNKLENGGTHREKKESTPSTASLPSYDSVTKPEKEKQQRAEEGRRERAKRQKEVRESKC

With `CSCC[C@@H]1NC(=O)CNC(=O)[C@H](CCC(=O)O)NC(=O)[C@@H]2CSSC[C@H](NC(=O)[C@@H](N)Cc3ccc(O)cc3)C(=O)N[C@@H](CCC(N)=O)C(=O)N[C@@H](CCCCN)C(=O)N[C@@H](Cc3c[nH]c4ccccc34)C(=O)N[C@@H](CCSC)C(=O)N[C@@H](Cc3c[nH]c4ccccc34)C(=O)N[C@@H]([C@@H](C)O)C(=O)N[C@H]3CSSC[C@H](NC(=O)[C@H](C(C)C)NC1=O)C(=O)N[C@@H](CCCNC(=N)N)C(=O)N[C@@H](CC(C)C)C(=O)N[C@@H](Cc1c[nH]c4ccccc14)C(=O)N[C@H](C(=O)N[C@@H](CCCCN)C(=O)N[C@@H](CCCCN)C(=O)N[C@@H](CCCCN)C(=O)N[C@@H](CC(C)C)C(=O)N[C@@H](Cc1c[nH]c4ccccc14)C(=O)O)CSSC[C@H](NC(=O)[C@H](CCCCN)NC(=O)[C@H](CCCNC(=N)N)NC(=O)[C@H](CCC(=O)O)NC(=O)[C@H](CO)NC(=O)[C@H](CC(=O)O)NC3=O)C(=O)N2` the IC50 [1] was 79 nM, the IC50 [2] was 41 nM and the IC50 [3] was 26 nM.
With `CC[C@H](C)[C@H](NC(=O)[C@H](Cc1ccc(O)cc1)NC(=O)[C@H](Cc1cnc[nH]1)NC(=O)[C@@H]1CSSC[C@H](NC(=O)[C@@H]2CCCN2C(=O)[C@H](CCCNC(=N)N)NC(=O)[C@H](CC(C)C)NC(=O)[C@H](CC(=O)O)NC(=O)[C@@H]2CCCN2C(=O)[C@H](CCCCN)NC(=O)CNC(=O)CN)C(=O)N[C@@H](Cc2cnc[nH]2)C(=O)N2CCC[C@H]2C(=O)N2CCC[C@H]2C(=O)N1)C(=O)N1CCC[C@H]1C(=O)N[C@@H](CCCNC(=N)N)C(=O)N1CCC[C@H]1C(=O)N[C@@H](CCCCN)C(=O)N1CCC[C@H]1C(=O)N[C@@H](CCCNC(=N)N)C(=O)O` (H-GGKPDLRPCHPPCHYIPRPKPR-OH; disulfide 9-13) the IC50 [4] was 50 nM and the LD50 [5] was 0.33 mg/kg.
In the case of H-KEFLHPSKVDLPR-OH [SOR-C13], the IC50 [6] is reported as 14 nM.
With “H-SDGTFTSDLSKQMEEEAVRLFIEWLKNGGPSGAPPPS-NH2” the half-life [7] was 2 min.
